Measurements reported in patent US20060029649A1, “Stabilized antimicrobial agents” (priority 2004, published 2006).

Test: Thermal stability of IPBC in lubricant mixtures, oven at 180° C., amount determined by HPLC
Format: physicochemical
Description: Except for example 2 wherein 100% IPBC was used, the antimicrobial agent was admixed with the lubricating agent at room temperature overnight in a roller mixer. Samples of the resulting mixtures were then placed in a conventional oven at 180° C. for the time specified below (5 minutes and 132 minutes). The amount of antimicrobial agent in the sample, initially and after heating, was determined by HPLC. All samples were contained in dark bottles and covered with aluminum foil during heating.
The samples were prepared and tested as described in Examples 1-5.

CCCCNC(=O)OCC#CI [Example 2, 3-iodo-2-propynyl butyl carbamate]
% Biocide/ 5 min. (after 5 minutes in oven at 180° C.): 83%
% Biocide/ 132 min. (after 132 minutes in oven at 180° C.): 0%
% Initial Biocide (before heating, by weight): 100%
